From patent US11814364B2, “Pyridine N-oxide derivatives useful as factor XIa inhibitors” (Janssen Pharmaceutica NV, priority 2021, dated 2023) come the findings set out here.

pIC50: −log10 of the molar value.

human plasma kallikrein, sequence (P03952 391-638 limits assumed): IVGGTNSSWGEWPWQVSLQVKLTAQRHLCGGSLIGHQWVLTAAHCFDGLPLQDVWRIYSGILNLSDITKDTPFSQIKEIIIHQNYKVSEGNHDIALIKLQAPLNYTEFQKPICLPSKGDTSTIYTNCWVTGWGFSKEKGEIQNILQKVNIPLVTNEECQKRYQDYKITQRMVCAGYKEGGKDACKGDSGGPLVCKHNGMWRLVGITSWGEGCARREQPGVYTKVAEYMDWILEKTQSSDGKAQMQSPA
human plasma kallikrein, sequence (P03952 20-390 partner limits assumed): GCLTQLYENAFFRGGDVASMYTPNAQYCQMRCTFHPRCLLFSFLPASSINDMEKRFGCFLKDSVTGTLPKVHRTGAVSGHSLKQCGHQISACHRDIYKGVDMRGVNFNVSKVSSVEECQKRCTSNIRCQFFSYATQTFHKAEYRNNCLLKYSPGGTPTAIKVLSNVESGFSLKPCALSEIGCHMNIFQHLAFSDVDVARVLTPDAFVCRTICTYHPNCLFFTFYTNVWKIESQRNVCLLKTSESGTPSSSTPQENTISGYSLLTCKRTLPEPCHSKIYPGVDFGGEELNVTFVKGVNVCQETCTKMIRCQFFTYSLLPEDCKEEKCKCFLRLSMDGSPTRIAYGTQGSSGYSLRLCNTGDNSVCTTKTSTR

This assay has as its target human plasma kallikrein (Homo sapiens, UniProt P03952). As to the kind of experiment: Kallikrein inhibition FLINT assay with quenched AMC peptide substrate Z-Gly-Pro-Arg-AMC (end point EP or kinetic KIN reads). The note with it: kinetic reads at 5 min intervals over 30 min; read-out: Kallikrein (KIN) IC50. The class given is biochemical. An outline of the steps:
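Enzyme and compound were preincubated 30 min before adding 50 μM AMC substrate in pH 7.5 Tris/NaCl/CaCl2/BSA/CHAPS buffer. AMC release was read at 30 min endpoint or every 5 min.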
As usually defined, the pIC50 is −log10 of the IC50, conventionally taken in molar units. For `COC(=O)Nc1ccc(-c2cnn(C(CC3CCCO3)c3ccc(-c4c(-n5cnnn5)ccc(Cl)c4F)c[n+]3[O-])c2)cc1` (single isomer, unassigned) [Example P202], the pIC50 is 6.92.

As for `Nc1ccc(-c2cnn(C(Cn3cccn3)c3ccc(-c4c(-n5cnnn5)ccc(Cl)c4F)c[n+]3[O-])c2)c(F)n1` (single isomer, unassigned) [Example P314], the pIC50 is 8.85.

For `CC(C)c1cc(-c2cnn(C(Cn3cc(F)cn3)c3ccc(-c4c(-n5cnnn5)ccc(Cl)c4F)c[n+]3[O-])c2)ccn1` (stereo not drawn) [Example P393], the pIC50 is 7.44.

Consider `O=C1CCCN1CC(c1ccc(-c2c(-n3cnnn3)ccc(Cl)c2F)c[n+]1[O-])n1cc(-c2ccnc(C(F)(F)F)c2)cn1` (single isomer, unassigned) [Example P364], for which the pIC50 was 7.87.

Consider `CCC(c1ccc(-c2c(-n3cnnn3)ccc(Cl)c2F)c[n+]1[O-])n1cc(-c2ccc(NC(=O)OC)cc2)cn1` (single isomer, unassigned) [Example P155], for which the pIC50 was 7.06.

Take `Cn1nccc1-c1cnn(C(CCOC(F)F)c2ccc(-c3c(-n4cnnn4)ccc(Cl)c3F)c[n+]2[O-])c1` (stereo not drawn) [Example P487]: the pIC50 was 8.05.

`[O-][n+]1cc(-c2c(-n3cnnn3)ccc(Cl)c2F)ccc1C(CC1CC1)n1cc(-c2cnn(C(F)(F)F)c2)cn1` (stereo not drawn) [Example P708]: the pIC50 is 6.18.

On to `[O-][n+]1ccc(-c2cnn(C(Cc3ccc(F)cc3)c3ccc(-c4c(-n5cnnn5)ccc(Cl)c4F)c[n+]3[O-])c2)cc1` (single isomer, unassigned) [Example P238], for which the pIC50 is 9.15.

With `NC(=O)C1CC1CC(c1ccc(-c2c(-n3cnnn3)ccc(Cl)c2F)c[n+]1[O-])n1cc(-c2ccncc2)cn1` (stereo not drawn) [Example P260], the pIC50 is 7.14.

Regarding `[O-][n+]1cc(-c2c(-n3cnnn3)ccc(Cl)c2F)ccc1[C@@H](CCOC(F)F)n1cc(-c2cnnn2C(F)F)cn1` [Example P676], the pIC50 was 7.93.

For `NC(=O)c1ccc(-c2cnn(C(Cn3cccn3)c3ccc(-c4c(-n5cc(C(F)(F)F)nn5)ccc(Cl)c4F)c[n+]3[O-])c2)cc1F` (stereo not drawn) [Example P948], the pIC50 was 7.93.

Consider `[O-][n+]1cc(-c2c(-n3cnnn3)ccc(Cl)c2F)ccc1[C@@H](Cc1ccc(C(F)(F)F)nc1)n1cc(-c2ncnn2C(F)F)cn1` [Example P783], for which the pIC50 is 7.72.

For `Cn1ccc(CC(c2ccc(-c3c(-n4cnnn4)ccc(Cl)c3F)c[n+]2[O-])n2cc(-c3ccnc(C(F)(F)F)c3)cn2)n1` (single isomer, unassigned) [Example P378], the pIC50 was 6.85.

As to `CN(CC(c1ccc(-c2c(-n3cnnn3)ccc(Cl)c2F)c[n+]1[O-])n1cc(-c2cc[n+]([O-])cc2)cn1)C(=O)c1ccccc1` (stereo not drawn) [Example P344], the pIC50 was 6.76.

Consider `Cn1ncnc1-c1cnn([C@H](Cc2ccn(C(F)F)n2)c2ccc(-c3c(-n4cc(Cl)nn4)ccc(Cl)c3F)c[n+]2[O-])c1` [Example P794], for which the pIC50 was 7.25.

As to `Nc1ccc(-c2cnn(C(Cn3cc(F)cn3)c3ccc(-c4c(-n5cnnn5)ccc(Cl)c4F)c[n+]3[O-])c2)c(F)n1` (single isomer, unassigned) [Example P417], the pIC50 was 7.11.

For the molecule `Cn1nnc(F)c1-c1cnn(C(Cc2ccn(C(F)F)n2)c2ccc(-c3c(-n4cc(Cl)nn4)ccc(Cl)c3F)c[n+]2[O-])c1` (stereo not drawn) [Example P797], the negative-log IC50 (pIC50) is 7.62.

Regarding `COc1cc(C(Cc2ccn(C(F)F)n2)n2cc(-c3ccc(C(=O)O)c(F)c3)cn2)[n+]([O-])cc1-c1c(C(F)F)ccc(Cl)c1F` (stereo not drawn) [Example Q74], the pIC50 is 7.96.

As to `Cn1nnc(F)c1-c1cnn(C(CCOC(F)F)c2ccc(-c3c(-c4cnco4)ccc(Cl)c3F)c[n+]2[O-])c1` (stereo not drawn) [Example P846], the pIC50 was 6.62.

On to `O=C(C1CC1CC(c1ccc(-c2c(-n3cnnn3)ccc(Cl)c2F)c[n+]1[O-])n1cc(-c2ccncc2)cn1)N1CCC(c2ccccc2)C1` (stereo not drawn) [Example P253], for which the pIC50 was 6.80.

Regarding `COC(=O)Nc1ccc(-c2cnn(C(CC3CCCCC3)c3ccc(-c4c(-n5cnnn5)ccc(Cl)c4F)c[n+]3[O-])c2)cc1` (stereo not drawn) [Example P102], the negative logarithm of the IC50 (pIC50) is 7.14.

As for `NC(=O)c1ccc(-c2cnn(C(Cc3ccn(C(F)F)n3)c3ccc(-c4c(-n5cnnn5)ccc(Cl)c4F)c[n+]3[O-])c2)cc1F` (single isomer, unassigned) [Example P933], the pIC50 is 9.40.

As to `COC(C)(C)C[C@H](c1ccc(-c2c(-n3cnnn3)ccc(Cl)c2F)c[n+]1[O-])n1cc(-c2ccnn2C(F)F)cn1` [Example P646], the pIC50 was 6.30.

`[O-][n+]1cc(-c2c(-n3cnnn3)ccc(Cl)c2F)ccc1C(Cc1ccc(F)cc1)n1cc(-c2nnn(C(F)F)c2Cl)cn1` (stereo not drawn) [Example P610]: the pIC50 was 6.24.

Consider `COC(=O)Nc1ccc(-c2cnn(C(CC3CCCCO3)c3ccc(-c4c(-n5cnnn5)ccc(Cl)c4F)c[n+]3[O-])c2)cc1` (single isomer, unassigned) [Example P127], for which the pIC50 was 7.15.

On to `COC(=O)Nc1ccc(-c2cnn(C(Cc3ccc(Cl)cc3)c3ccc(-c4c(-n5cnnn5)ccc(Cl)c4F)c[n+]3[O-])c2)cc1` (stereo not drawn) [Example P94], for which the pIC50 was 7.74.

Take `O=C(O)c1ccc(-c2cnn(C(Cc3ncco3)c3ccc(-c4c(-n5cc(C(F)(F)F)nn5)ccc(Cl)c4F)c[n+]3[O-])c2)cc1F` (stereo not drawn) [Example P912]: the pIC50 is 7.93.

In the case of `Cn1ncnc1-c1cnn([C@H](CCOC(F)F)c2ccc(-c3c(-n4cnnn4)ccc(Cl)c3F)c[n+]2[O-])c1` [Example P550], the pIC50 is 7.74.

Consider `CC1CC1CC(c1ccc(-c2c(-n3cnnn3)ccc(Cl)c2F)c[n+]1[O-])n1cc(-c2ccc(C(=O)O)cc2)cn1` (stereo not drawn) [Example P227], for which the negative-log IC50 (pIC50) is 7.92.

Turning to `CN(CC(c1ccc(-c2c(-n3cnnn3)ccc(Cl)c2F)c[n+]1[O-])n1cc(-c2ccncc2)cn1)C(=O)c1ccccc1` (stereo not drawn) [Example P296], the pIC50 was 7.44.

Take `COCCC(c1ccc(-c2c(-n3cc(Cl)nn3)ccc(Cl)c2F)c[n+]1[O-])n1cc(-c2c(Cl)nnn2C)cn1` (stereo not drawn) [Example P639]: the pIC50 is 6.50.

On to `[O-][n+]1cc(-c2c(-n3cnnn3)ccc(Cl)c2F)ccc1C(Cn1cc(-c2ccccn2)cn1)n1cc(-c2ccccn2)cn1` (single isomer, unassigned) [Example P516], for which the pIC50 is 6.86.

As for `COc1ccc(CC(c2ccc(-c3c(-n4cnnn4)ccc(Cl)c3F)c[n+]2[O-])n2cc(-c3ccn(C)c(=O)c3)cn2)cc1` (stereo not drawn) [Example P134], the pIC50 is 8.15.

Consider `CN(CC(c1ccc(-c2c(-n3cnnn3)ccc(Cl)c2F)c[n+]1[O-])n1cc(-c2ccnc(C(F)(F)F)c2)cn1)C(=O)C1CC1` (single isomer, unassigned) [Example P425], for which the pIC50 is 6.24.

For `N#Cc1cc(-c2cnn(C(CN3CCCC3=O)c3ccc(-c4c(-n5cnnn5)ccc(Cl)c4F)c[n+]3[O-])c2)cc[n+]1[O-]` (stereo not drawn) [Example P466], the pIC50 was 6.64.

Regarding `[O-][n+]1cc(-c2c(-n3cnnn3)ccc(Cl)c2F)ccc1[C@@H](Cc1ccn(C(F)F)n1)n1cc(-c2ccnn2C(F)F)cn1` [Example P734], the pIC50 is 8.19.

Regarding `COCc1ccn(CC(c2ccc(-c3c(-n4cnnn4)ccc(Cl)c3F)c[n+]2[O-])n2cc(-c3ccnc(C(F)(F)F)c3)cn2)n1` (single isomer, unassigned) [Example P440], the pIC50 was 7.15.

With `[O-][n+]1cc(-c2c(-n3cnnn3)ccc(Cl)c2F)ccc1C(Cn1cc(F)cn1)n1cc(-c2ccnc(C(F)(F)F)c2)cn1` (stereo not drawn) [Example P333], the pIC50 was 7.76.

Consider `[O-][n+]1cc(-c2c(-n3cnnn3)ccc(Cl)c2F)ccc1C(CCOC(F)F)n1cc(-c2cn(C(F)F)nn2)cn1` (single isomer, unassigned) [Example P660], for which the negative logarithm of the IC50 (pIC50) is 6.54.

With `[O-][n+]1cc(-c2c(-n3cnnn3)ccc(Cl)c2F)ccc1[C@@H](CCOC(F)F)n1cc(-c2ccnn2C(F)F)cn1` [Example P564], the pIC50 is 8.25.

Consider `[O-][n+]1ccc(-c2cnn(C(CCOC(F)F)c3ccc(-c4c(-n5cnnn5)ccc(Cl)c4F)c[n+]3[O-])c2)c(F)c1` (single isomer, unassigned) [Example P306], for which the pIC50 is 7.83.

For the molecule `[O-][n+]1ccc(-c2cnn(C(Cn3cccn3)c3ccc(-c4c(-n5cnnn5)ccc(Cl)c4F)c[n+]3[O-])c2)cc1C(F)F` (single isomer, unassigned) [Example P334], the negative-log IC50 (pIC50) was 7.54.

Turning to `CS(=O)(=O)Nc1ccc(-c2cnn(C(Cc3ccccc3)c3ccc(-c4c(-n5cnnn5)ccc(Cl)c4F)c[n+]3[O-])c2)cc1` (stereo not drawn) [Example P76], the pIC50 is 8.38.

For the molecule `COC(=O)Nc1ccc(-c2cnn(C(CC3CC3C(N)=O)c3ccc(-c4c(-n5cnnn5)ccc(Cl)c4F)c[n+]3[O-])c2)cc1` (stereo not drawn) [Example P249], the pIC50 was 6.18.

On to `NC(=O)C1CC1CC(c1ccc(-c2c(-n3cnnn3)ccc(Cl)c2F)c[n+]1[O-])n1cc(-c2ccc(N)nc2F)cn1` (single isomer, unassigned) [Example P337], for which the pIC50 was 6.25.

As to `COc1cc(C(Cc2ccn(C(F)F)n2)n2cc(-c3ccc(C(N)=O)c(F)c3)cn2)[n+]([O-])cc1-c1c(C(F)F)ccc(Cl)c1F` (stereo not drawn) [Example Q75], the pIC50 was 8.00.

With `CN1CCN(CC(c2ccc(-c3c(-n4cnnn4)ccc(Cl)c3F)c[n+]2[O-])n2cc(-c3ccnc(C(F)(F)F)c3)cn2)C1=O` (stereo not drawn) [Example P432], the negative-log IC50 (pIC50) is 8.55.

With `Nc1ncc(-c2cnn(C(Cc3ccc(Cl)cc3)c3ccc(-c4c(-n5cnnn5)ccc(Cl)c4F)c[n+]3[O-])c2)cc1F` (stereo not drawn) [Example P162], the negative logarithm of the IC50 (pIC50) was 8.17.

Regarding `COC(=O)Nc1ccc(-c2cnn(C(Cn3ccccc3=O)c3ccc(-c4c(-n5cnnn5)ccc(Cl)c4F)c[n+]3[O-])c2)cc1` (stereo not drawn) [Example P305], the pIC50 is 8.26.

Regarding `CC(C)Oc1cc(C(CC2CC2)n2cc(-c3cnn(C)c(=O)c3)cn2)[n+]([O-])cc1-c1c(-n2cnnn2)ccc(Cl)c1F` (stereo not drawn) [Example P146], the pIC50 was 6.24.

As for `COC(=O)Nc1ccc(-c2cnn(C(CC3CC3C(=O)N3CCCC(c4ccccc4)C3)c3ccc(-c4c(-n5cnnn5)ccc(Cl)c4F)c[n+]3[O-])c2)cc1` (stereo not drawn) [Example P221], the pIC50 was 6.42.
